This passage reports LC retention time results from the RepoRT retention time repository (doi:10.1016/j.jchromb.2020.122105).

What all share (conditions): stereoisomer not certain
The nature of data set [1]: RP, Waters CORTECS T3, 100 × 2.1 mm, 2.7 µm, 0.3 mL/min, estimated dead time 0.73 min; A: water + 0.1% formic acid, pH 3; B: methanol + 0.1% formic acid, pH 3; gradient (min/%B) 0/0 5/0 25/100 30/100 30.1/0 35/0.
Data set [2] in a line: RP, Waters CORTECS T3, 100 × 2.1 mm, 2.7 µm, 0.2 mL/min, estimated dead time 1.1 min; A: water + 0.1% formic acid, pH 3; B: methanol + 0.1% formic acid, pH 3; gradient (min/%B) 0/0 1/0 6/5 30/100 35/100 35.1/0 40/0.
Data set [3] in a line: RP, Waters CORTECS T3, 100 × 2.1 mm, 2.7 µm, 0.15 mL/min, estimated dead time 1.5 min; A: water + 0.1% formic acid, pH 3; B: methanol + 0.1% formic acid, pH 3; gradient (min/%B) 0/0 1/0 6/5 30/100 35/100 35.1/0 40/0.
Data set [4] is described as follows: RP, Waters CORTECS T3, 100 × 2.1 mm, 2.7 µm, 0.3 mL/min, estimated dead time 0.73 min; A: water + 0.1% formic acid, pH 3; B: methanol + 0.1% formic acid, pH 3; gradient (min/%B) 0/0 1/0 6/5 30/100 35/100 35.1/0 40/0.
The nature of data set [5]: RP, Thermo Scientific Hypercarb, 150 × 2.1 mm, 5 µm, 0.1 mL/min, estimated dead time 3.3 min; A: water + 0.1% formic acid, pH 3; B: methanol + 0.1% formic acid, pH 3; gradient (min/%B) 0/5 5/5 20/100 35/100 35.1/5 45/5.
Data set [6] is described as follows: RP, Waters CORTECS T3, 100 × 2.1 mm, 2.7 µm, 0.3 mL/min, estimated dead time 0.73 min; A: water + 0.1% formic acid, pH 3; B: methanol + 0.1% formic acid, pH 3; gradient (min/%B) 0/5 5/5 25/95 25.1/100 35/100 35.1/5 45/5.
Data set [7] is described as follows: RP, Waters ACQUITY UPLC BEH C18, 100 × 2.1 mm, 1.7 µm, 0.1 mL/min, estimated dead time 2.2 min; A: water + 0.1% formic acid, pH 3; B: methanol + 0.1% formic acid, pH 3; gradient (min/%B) 0/5 5/5 25/100 30/100 30.1/5 35/5.
Data set [8] is described as follows: RP, Waters ACQUITY UPLC BEH C18, 100 × 2.1 mm, 1.7 µm, 0.1 mL/min, estimated dead time 2.2 min; A: water + 0.1% formic acid, pH 3; B: methanol + 0.1% formic acid, pH 3; gradient (min/%B) 0/5 5/5 25/95 25.1/100 35/100 35.1/5 45/5.
Data set [9] can be described thus: HILIC, Merck SeQuant ZIC-HILIC, 150 × 2.1 mm, 5 µm, 0.75 mL/min, estimated dead time 0.44 min; A: water + 10 mM ammonium formate, pH 6; B: 5% water + 95% acetonitrile + 10 mM ammonium formate, pH 6; gradient (min/%B) 0/95 5/95 20/57 25/57 30/95 40/95.
Data set [10] can be described thus: RP, Waters CORTECS T3, 100 × 2.1 mm, 2.7 µm, 0.3 mL/min, estimated dead time 0.73 min; A: water + 0.1% formic acid, pH 3; B: methanol + 0.1% formic acid, pH 3; gradient (min/%B) 0/5 5/5 25/100 30/100 30.1/5 35/5.
Data set [11] is described as follows: RP, Waters CORTECS T3, 100 × 2.1 mm, 2.7 µm, 0.1 mL/min, estimated dead time 2.2 min; A: water + 0.1% formic acid, pH 3; B: methanol + 0.1% formic acid, pH 3; gradient (min/%B) 0/0 1/0 6/5 30/100 35/100 35.1/0 40/0.
Data set [12] can be described thus: RP, Waters CORTECS T3, 100 × 2.1 mm, 2.7 µm, 0.25 mL/min, estimated dead time 0.88 min; A: water + 0.1% formic acid, pH 3; B: methanol + 0.1% formic acid, pH 3; gradient (min/%B) 0/0 1/0 6/5 30/100 35/100 35.1/0 40/0.
The nature of data set [13]: RP, Waters CORTECS T3, 100 × 2.1 mm, 2.7 µm, 0.1 mL/min, estimated dead time 2.2 min; A: water + 0.1% formic acid, pH 3; B: methanol + 0.1% formic acid, pH 3; gradient (min/%B) 0/5 5/5 25/95 25.1/100 35/100 35.1/5 45/5.
The nature of data set [14]: RP, Waters CORTECS T3, 100 × 2.1 mm, 2.7 µm, 0.2 mL/min, estimated dead time 1.1 min; A: water + 0.045% formic acid + 0.11% ammonium hydroxide, pH 7; B: methanol; gradient (min/%B) 0/5 5/5 25/95 25.1/100 35/100 35.1/5 45/5.
A short description of data set [15]: RP, Waters ACQUITY UPLC BEH C18, 100 × 2.1 mm, 1.7 µm, 0.1 mL/min, estimated dead time 2.2 min; A: water + 0.045% formic acid + 0.11% ammonium hydroxide, pH 7; B: methanol; gradient (min/%B) 0/5 5/5 25/95 25.1/100 35/100 35.1/5 45/5.
Data set [16] in a line: RP, Waters ACQUITY UPLC BEH C18, 100 × 2.1 mm, 1.7 µm, 0.2 mL/min, estimated dead time 1.1 min; A: water + 0.025% formic acid + 20 mM ammonium acetate + 0.055% ammonium hydroxide, pH 7; B: methanol; gradient (min/%B) 0/5 5/5 25/100 30/100 30.1/5 35/5.
Experiment in data set [17]: as above
This is another data set of the same source.

Data set [18] in a line: HILIC, Merck SeQuant ZIC-HILIC, 150 × 2.1 mm, 5 µm, 0.75 mL/min, estimated dead time 0.44 min; A: water + 0.1% acetic acid + 10 mM ammonium acetate, pH 4; B: 5% water + 95% acetonitrile + 0.1% acetic acid + 10 mM ammonium acetate, pH 4; gradient (min/%B) 0/95 5/95 20/57 25/57 30/95 40/95.
The nature of data set [19]: HILIC, Waters XBridge BEH Amide, 100 × 2.1 mm, 2.5 µm, 0.5 mL/min, estimated dead time 0.44 min; A: water + 0.1% acetic acid + 10 mM ammonium acetate, pH 4; B: 5% water + 95% acetonitrile + 0.1% acetic acid + 10 mM ammonium acetate, pH 4; gradient (min/%B) 0/95 5/95 20/57 25/57 30/95 40/95.
Data set [20] is described as follows: RP, Waters CORTECS T3, 100 × 2.1 mm, 2.7 µm, 0.2 mL/min, estimated dead time 1.1 min; A: water + 0.1% formic acid, pH 3; B: methanol + 0.1% formic acid, pH 3; gradient (min/%B) 0/5 5/5 25/95 25.1/100 35/100 35.1/5 45/5.
Data set [21] in a line: RP, Waters ACQUITY UPLC BEH C18, 100 × 2.1 mm, 1.7 µm, 0.2 mL/min, estimated dead time 1.1 min; A: water + 0.1% formic acid, pH 3; B: methanol + 0.1% formic acid, pH 3; gradient (min/%B) 0/5 5/5 25/100 30/100 30.1/5 35/5.
Data set [22] can be described thus: RP, Waters ACQUITY UPLC BEH C18, 100 × 2.1 mm, 1.7 µm, 0.1 mL/min, estimated dead time 2.2 min; A: water + 0.1% formic acid, pH 3; B: methanol + 0.1% formic acid, pH 3; gradient (min/%B) 0/5 5/5 25/95 25.1/100 35/100 35.1/5 45/5. This is another data set of the same source.

As to `CC1NCCc2cc(O)c(O)cc21` (stereo not drawn) [1-METHYL-6,7-DIHYDROXY-1,2,3,4-TETRAHYDROISOQUINOLINE], the LC retention time in [1] is 0.93 min; in data set [2], 1.34 min; in [3] it was 1.83 min; in [4], 0.92 min; in data set [5], 17.8 min; in data set [6], 0.9 min. Besides, the LC retention time was 2.74 min in [7], 2.66 min in [8] and 8.92 min in [9].
Regarding `NC(=O)Cc1c[nH]c2ccccc12` [INDOLE-3-ACETAMIDE], the LC retention time in data set [10] is 9.85 min; in data set [1], 11.1 min; in data set [2] it was 13 min; in data set [11] it was 11.6 min; in data set [3], 14.5 min; in data set [4], 11.4 min. In addition, the LC retention time in data set [12] is 12.1 min; in data set [13], 15.2 min; in data set [6], 9.92 min; in data set [7], 15.4 min; in data set [14] it was 11.7 min; in data set [8], 15.6 min. In addition, the LC retention time was 15.6 min in [15]; 11.9 min in data set [16]; 11.9 min in [17]; 0.95 min in data set [18]; 0.91 min in data set [19].
`C=Cc1c(C)c2cc3[nH]c(cc4nc(cc5nc(cc1[nH]2)C(C)=C5CCC(=O)O)C(CCC(=O)O)=C4C)c(C)c3C=C` [PROTOPORPHYRIN]: the LC retention time in [10] was 25.1 min; in [1], 25.3 min; in data set [2], 30.7 min; in data set [11], 26.5 min; in [3], 31.9 min; in data set [4], 29.7 min. Besides, the LC retention time is 30.1 min in data set [12]; 30.1 min in data set [13]; 26.1 min in data set [6]; 29.5 min in data set [7]; 25.9 min in [14]; 30.2 min in data set [8]. The LC retention time in data set [15] was 29.5 min; in data set [17], 25.4 min.
For the molecule `NC(=O)C1CCCN1C(=O)C(Cc1cnc[nH]1)NC(=O)C1CCC(=O)N1` (stereo not drawn) [THYROTROPIN RELEASING HORMONE], the LC retention time in [1] was 0.89 min; in [2], 1.34 min; in data set [3] it was 1.83 min; in data set [4], 0.92 min; in [12], 1.09 min; in data set [20], 2.67 min. Further, the LC retention time in [5] was 15.7 min; in data set [6] it was 0.9 min; in [21], 1.38 min; in data set [7], 2.74 min; in [8], 2.66 min; in [22] it was 2.7 min. In addition, the LC retention time in [17] was 7.17 min.
